Experimental findings from patent publication US20210015889A1, “METHODS OF DISRUPTING A BIOFILM AND/OR PREVENTING FORMATION OF SAME” (Yeda Research and Development Co. Ltd., priority 2018, published 2021) are described below.

Common to all, as to format: cell-based
For assay [1], the system named is P. aeruginosa. Nature of the assay: P. aeruginosa biofilm formation, Crystal Violet Staining. The conditions noted are these: for biofilm development: P. aeruginosa submerged biofilm, single inhibitor (FIG. 6); for biofilm formation / combination effect on biofilm formation: P. aeruginosa; for biofilm formation: single inhibitor (FIGS. 13-14). Here is the method:
(§1) Crystal Violet—From each individual culture, 20 μl samples from exponential phase and 180 μl of TSB broth were dispensed in the wells of sterile 96-wells flat-bottomed microtiter plate (Nunc) and incubated at 37° C. for 24 hours. The control well contained only TSB broth without inoculation. Following incubation, unbound cells were removed by inversion of the microtiter plate, followed by vigorous tapping on an absorbent paper. Subsequently, adhered cells were fixed for 30 minutes at […]. Adhered cells were stained by addition of 220 μl of crystal violet (0.5%) for 5 minutes. The stain was removed by exhaustive washing with distilled water. The plates were then allowed to dry. In order to quantify adhered cells, 220 μl of decoloring solution (95% ethanol) was added to each well for 15 minutes. The absorption of the eluted stain was measured at 590 nm.

The test system of assay [2] is P. aeruginosa pre-existing biofilm. Nature of the assay: P. aeruginosa pre-existing biofilm, Crystal Violet Staining. The conditions noted are these: biofilms grown 12 hours in TSB, treated 6 hours in PBS (FIG. 8). The protocol: P. aeruginosa biofilms were grown in multi-well 24 wells plates in TSB for 12 hours. Following, biofilms were treated either in PBS or PBS applied with the indicated concentrations of sodium vanadate, DTNB or AHA for 6 hours. Results are shown as intensity of crystal violet staining (OD595) compared with the initial absorbance prior to treatment.
as §1

Assay [3] deals with P. aeruginosa. The experiment in a line: Survival of P. aeruginosa biofilm after exposure to ciprofloxacin or gentamicin (CFU). The conditions noted are these: alone or in combination (FIGS. 7 and 9). The protocol:
P. aeruginosa biofilms were grown in multi-well 24 wells plates in TSB for 12 hours. Following, biofilms were treated either in PBS or PBS applied with the indicated concentrations of DTNB, AHA, CIP and/or GM for 6 hours. Following treatment, the biofilms were mildly sonicated and serially diluted to assess the number of CFU within each group.

Assay [4] has as its system P. aeruginosa. Nature of the assay: Planktonic growth of P. aeruginosa. The following applies: inhibitor concentrations used, data not shown. Here is the method:
(§2) Growth Analysis—To determine growth kinetics of planktonic bacteria,the cultures were grown for 15-30 hours at 30° C. in a plate reader (BioTek, Winooski, Vt., USA) and the optical density at 600 nm (OD600) was measured every 20 minutes. Results are presented as averages for 5-6 wells from a single representative experiment out of three.

The test system of assay [5] is P. aeruginosa. The experiment in a line: Ex vivo lung infection system (mouse lung explants infected with P. aeruginosa). The following applies: 37° C.; for lung colonization by P. aeruginosa / lung tissue death: mouse lung explants, ~2 days (FIGS. 10D and 11); for tissue damage (Hematoxylin/eosin histology): mouse lung tissue with P. aeruginosa, 2 days. From the text: FIG. 10A is a scanning Electron Microscopy (SEM) image of biofilms of partially bleached sputum sample from P. aeruginosa positive CF patient A4, containing bleach-resistant mineralized tissue. FIG. 10B is a SEM image of biofilms of partially bleached sputum sample from P. aeruginosa positive CF patient A62 (left), accompanied by an image taken with the backscattering mode (right), containing bleach-resistant mineralized tissue. […] P. aeruginosa strain PA14 expressing GFP (green) was used to infect a lung tissue (nucleoli of lung cells were stained with DAPI—blue). Lung tissue was harvested from one month old mice and incubated in DMEM 5% FCS at 37° C. for 2 days, in the presence of P. aeruginosa, sectioned and visualized. […] Lungs were harvested from one month old mice and tissue was incubated in DMEM 5% FCS, either with or without AHA, as indicated. To each sample, either P. aeruginosa or DMEM (control) was added. Samples were incubated at 37° C. for 2 days, sectioned, stained with Hematoxylin/eosin stain and visualized.
Lungs were harvested from one month old mice and tissue was incubated in DMEM 5% FCS, either with or without DTNB, as indicated. To each sample, either P. aeruginosa or DMEM (control) was added. Samples were incubated at 37° C. for 2 days, sectioned, stained with Hematoxylin/eosin stain and visualized.
Ex vivo lung infection system—Lungs were harvested from 2 mice (one month old) and placed in petri dishes containing DMEM 5% FCS. The tissue was divided into circular pieces 4 mm in diameter with a biopsy punch and transferred to a 24 wells plate (4-5 explants/well) with 450 μl DMEM containing 100 μg/ml carbenicillin (Sigma-Aldrich) and 0, 2.5, or 5 mg/ml AHA or DTNB. To each respective well, either 50 μl DMEM (control) or P. aeruginosa pretreated with 0, 2.5, or 5 mg/ml AHA or with 0, 1, 5 or 10 mM DTNB and diluted within DMEM to attain OD600 0.373 or 0.257, respectively, were added, with three technical repeats for each condition. The plates were incubated at 37° C. for ˜2 days (48-52 hours) and washed twice with PBS, fixed with PFA 4% for 10 minutes, and embedded in either cryosection (OCT) compound or paraffin. Paraffin samples were cut into 7 micron slices and stained with H&E; whereas cryosections were cut into 10 micron slices and placed on superfrost plus slides.

Assay [6] deals with M. smegmatis planktonic cells. The experiment in a line: Planktonic growth (OD600) of M. smegmatis in B4 medium. The following applies: B4 medium with Ca (FIG. 3C lower). Here is the method:
(§3) B. subtilis and M. smegmatis colonies grown on 1.5% B4 agar, supplemented with Ca acetate. FIG. 3A is a schematic representation of the biomineralization reactions leading to bicarbonate production. […] Scale bars represent 2 mm. […] DMSO served as a positive control and a medium not supplemented with Ca served as a negative control. Scale bars represent 2 mm. […] Colonies were grown in a medium supplemented with 0.025% Ca and treated with 10 mg/ml AHA. DMSO served as a positive control and a medium not supplemented with Ca served as a negative control. Scale bars represent 2 mm in the upper panels; and 0.5 mm in the lower panels.
as §2

The subject of assay [7] is B. subtilis. Nature of the assay: Planktonic growth (OD600) of B. subtilis in B4 medium. The following applies: B4 medium with Ca, AHA concentrations giving smooth colonies (FIG. 3C upper). Here is the method:
as §3, §2

In the next assay the test system is M. smegmatis. The experiment in a line: Pellicle biofilm model, M. smegmatis in liquid B4. The following applies: liquid B4, 0.025% calcium acetate, 4 days (FIG. 4B). The protocol:
(§4) B. subtilis (FIG. 4A) and M. smegmatis (FIG. 4B) cells were grown in liquid B4 supplemented with 0.25% and 0.025% calcium acetate, respectively, and treated with AHA at the indicated concentrations. DMSO served as a positive control and a medium not supplemented with Ca served as a negative control. The images of the top view of the wells were taken following robust pellicles formed in the DMSO control—at 3 days for B. subtilis and at 4 days for M. smegmatis.

In assay [8] the test system is B. subtilis colonies. The experiment in a line: FITC diffusion in colony cross-sections. The following applies: day 3 B. subtilis colonies, 0.025% Ca, 10 mg/ml AHA, 4 hours after FITC (FIG. 3E). The protocol: as §3
Imaging—All images were taken using a Nikon D3 camera or a Stereo Discovery V20″ microscope (Tochigi, Japan) with objectives Plan Apo S ×0.5 FWD 134 mm or Apo S ×1.0 FWD 60 mm (Zeiss, Goettingen, Germany) attached to a high-resolution microscopy Axiocam camera. Data were created and processed using Axiovision suite software (Zeiss). To visualize colony cross-sections, a warm low-melt agar was poured over the colony following incubation with FITC, and allowed to solidify at room temperature (RT). Following, slices were made with a razor blade and immediately visualized. All experiments were repeated at least 3 times, in technical triplicates, with similar results.

Assay [9] concerns B. subtilis. Nature of the assay: Pellicle biofilm model, B. subtilis in liquid B4. The protocol:
as §4
B. subtilis cells were grown in liquid B4 supplemented with 0.25% calcium acetate and treated with AHA at the indicated concentrations. DMSO served as a positive control and a medium not supplemented with Ca served as a negative control. The images of the top view of the wells were taken following 6 days; and the weight of the mineral was determined following removal of all organic material by bleaching.
Analysis of the weight of the minerals—(A) Thermogravimetric analysis (TGA) of the B. subtilis colonies was performed as described previously [Levi-Kalisman et al., J Chem Soc Dalton (2000), 3977-3982] for at-least three colonies materials combined for each time point. The weight loss associated with the calcite relates to the temperature range 650-800° C. Results are presented as an average of at-least three independent experiments. […]

Assay [10] concerns B. subtilis colonies. Nature of the assay: B. subtilis colony biofilm on B4 agar with Ca acetate.
In a further assay the test system is M. smegmatis colonies. The experiment in a line: M. smegmatis colony biofilm on B4 agar with Ca acetate.

Take `O=C(O)c1cc(SSc2ccc([N+](=O)[O-])c(C(=O)O)c2)ccc1[N+](=O)[O-]` [DTNB, 5,5′-Dithiobis (2-nitrobenzoic acid, DTNB)]: in the assay on P. aeruginosa [1], the biofilm development entry was “impaired biofilm development” and the biofilm formation entry is on record as “inhibited biofilm formation”. Moreover, the “dispersal of pre-existing biofilm” value in assay [2] is recorded as “able to disperse a pre-existing P. aeruginosa biofilm”. The “sensitization to ciprofloxacin and gentamicin” value with P. aeruginosa [3] was “sensitized the P. aeruginosa colonies to treatment with ciprofloxacin and gentamicin”. For the same compound, in the assay with P. aeruginosa [4], the “effect on planktonic growth” value is recorded as “little or no effect on planktonic growth”. Moreover, in the assay on P. aeruginosa [5], the “lung colonization by P. aeruginosa” value was “diminished lung colonization by P. aeruginosa”, the lung tissue death entry was “prevented lung tissue death” and the “tissue damage (Hematoxylin/eosin histology)” value was “prevents tissue damage”.

As to sodium vanadate, the “combination effect on biofilm formation” value with P. aeruginosa [1] (in combination with AHA (FIG. 13)) and in the assay on P. aeruginosa [1] (in combination with DTNB (FIG. 14)) was “synergistic” throughout. The biofilm formation entry in the assay on P. aeruginosa [1] is listed as “inhibited biofilm formation”.

Regarding `CC(=O)NO` [AHA, acetohydroxamic acid], the biofilm development entry with P. aeruginosa [1] was “impaired biofilm development”. For the same compound, the biofilm formation entry with P. aeruginosa [1] was “inhibited biofilm formation”. Besides, the “dispersal of pre-existing biofilm” value in assay [2] is given as “able to disperse a pre-existing P. aeruginosa biofilm”. Besides, in [6], the “tolerance by planktonic cells” value is “well-tolerated”. Also, the “effect on planktonic growth” value with B. subtilis [7] and with P. aeruginosa [4] was “little or no effect on planktonic growth” throughout. The “growth, biofilm development and biomineralization in pellicle biofilm model” value in the assay on M. smegmatis is “inhibits growth, biofilm development and biomineralization”; in the assay on B. subtilis [9] (B. subtilis, liquid B4, 0.25% calcium acetate, 3 days (FIG. 4A)) it was “inhibits growth, biofilm development and biomineralization”. Further, the “sensitization to ciprofloxacin and gentamicin” value with P. aeruginosa [3] is “sensitized the P. aeruginosa colonies to treatment with ciprofloxacin and gentamicin”. For the same compound, in the assay on B. subtilis colonies [8], the “formation of diffusion barriers within the colony” value is reported as “prevented the formation of the diffusion barriers within the colony”. Moreover, the non-soluble mineral production result in the assay on B. subtilis [9] (B. subtilis pellicle, 0.25% calcium acetate, 6 days, mineral weight after bleaching (FIG. 5)) is listed as “decreased non-soluble mineral production”. For the same compound, the “growth, biofilm development and biomineralization of colonies” value in the assay on B. subtilis colonies [10] (B. subtilis colonies on 1.5% B4 agar with Ca acetate (FIGS. 3A-E)) was “inhibits growth, biofilm development and biomineralization”. Further, the colony morphology result is given as “smooth colony morphology” in the assay on B. subtilis colonies [10] (B. subtilis, medium with 0.25% Ca, AHA at indicated doses (FIG. 3B)) and “less wrinkled colonies” in the assay with M. smegmatis colonies (0.025% Ca, AHA concentrations tolerated by planktonic cells (FIG. 3D)). For the same compound, the “growth, biofilm development and biomineralization” value in the assay on M. smegmatis colonies (inhibition of urease activity) is “inhibited growth, biofilm development and biomineralization”. Further, in the assay on P. aeruginosa [5], the “lung colonization by P. aeruginosa” value is “diminished lung colonization by P. aeruginosa”. The lung tissue death entry in the assay with P. aeruginosa [5] is listed as “prevented lung tissue death”. Further, in the assay with P. aeruginosa [5], the “tissue damage (Hematoxylin/eosin histology)” value was “prevents tissue damage”.
